The OligoGym collection
“And” between values parts separate entries of the source, which are not always exact repeats. Equal values may be shown once. HELM strings list units from the 5' end as sugar, base in round brackets, then linkage (d deoxyribose, r ribose, m 2'-O-methyl, p phosphodiester). Methylation of C is not given here. [moe] = 2'-O-(2-methoxyethyl) (MOE); [cEt] = constrained ethyl (cEt); [sp] = phosphorothioate linkage

Target: HBV
Conditions: ASO

Substance | target mRNA inhibition (HepG2, 0.07 µM) | other results
RNA1{[moe](A)[sp].[moe](A)[sp].[moe](C)[sp].[moe](C)[sp].d(A)[sp].d(C)[sp].d(T)[sp].d(G)[sp].d(A)[sp].d(A)[sp].d(C)[sp].d(A)[sp].d(A)[sp].[moe](A)[sp].[moe](T)[sp].[moe](G)[sp].[moe](G)}$$$$V2.0 | 57% and 55% | 
RNA1{[moe](A)[sp].[moe](A)[sp].[moe](C)[sp].[moe](C)[sp].d(A)[sp].d(C)[sp].d(T)[sp].d(G)[sp].d(A)[sp].d(A)[sp].d(C)[sp].d(A)[sp].d(A)[sp].[moe](A)[sp].[moe](T)[sp].[moe](G)}$$$$V2.0 | 52% and 54% | 
RNA1{[moe](A)[sp].[moe](A)[sp].[moe](C)[sp].[moe](T)[sp].[moe](G)[sp].d(G)[sp].d(A)[sp].d(G)[sp].d(C)[sp].d(C)[sp].d(A)[sp].d(C)[sp].d(C)[sp].d(A)[sp].[moe](G)[sp].[moe](C)}$$$$V2.0 | 50% and 39% | 
RNA1{[moe](A)[sp].[moe](A)[sp].[moe](G)[sp].[cEt](C)[sp].d(G)[sp].d(A)[sp].d(A)[sp].d(G)[sp].d(T)[sp].d(G)[sp].d(C)[sp].d(A)[sp].d(C)[sp].[cEt](A)[sp].[moe](C)[sp].[moe](G)[sp].[moe](G)}$$$$V2.0 |  | target mRNA inhibition (HepG2, 0.009375 µM): 28%; target mRNA inhibition (HepG2, 0.01875 µM): 27%; target mRNA inhibition (HepG2, 0.0375 µM): 42%; target mRNA inhibition (HepG2, 0.075 µM): 59%; target mRNA inhibition (HepG2, 0.15 µM): 81%; target mRNA inhibition (HepG2, 0.3 µM): 88%
RNA1{[moe](A)[sp].[moe](A)[sp].[moe](G)[sp].[moe](C)[sp].[moe](G)[sp].[moe](A)[sp].d(A)[sp].d(G)[sp].d(T)[sp].d(G)[sp].d(C)[sp].d(A)[sp].d(C)[sp].d(A)[sp].d(C)[sp].[moe](G)[sp].[moe](G)}$$$$V2.0 | 92% and 73% | target mRNA inhibition (HepG2, 0.0092593 µM): 20%; target mRNA inhibition (HepG2, 0.0277778 µM): 36%; target mRNA inhibition (HepG2, 0.0833333 µM): 54%; target mRNA inhibition (HepG2, 0.25 µM): 76%
RNA1{[moe](A)[sp].[moe](A)[sp].[moe](G)[sp].[moe](C)[sp].[moe](G)[sp].d(A)[sp].d(A)[sp].d(G)[sp].d(T)[sp].d(G)[sp].d(C)[sp].d(A)[sp].d(C)[sp].d(A)[sp].[moe](C)[sp].[moe](G)}$$$$V2.0 | 71% and 68% | 
RNA1{[moe](A)[sp].[moe](A)[sp].[moe](G)[sp].d(C)[sp].d(G)[sp].d(A)[sp].d(A)[sp].d(G)[sp].d(T)[sp].d(G)[sp].d(C)[sp].d(A)[sp].[moe](C)[sp].[moe](A)[sp].[moe](C)[sp].[moe](G)}$$$$V2.0 | 74% and 64% | 
RNA1{[moe](A)[sp].[moe](A)[sp].[moe](T)[sp].[moe](T)[sp].d(T)[sp].d(A)[sp].d(T)[sp].d(G)[sp].d(C)[sp].d(C)[sp].d(T)[sp].d(A)[sp].d(C)[sp].[moe](A)[sp].[moe](G)[sp].[moe](C)[sp].[moe](C)}$$$$V2.0 | 40% and 36% | 
RNA1{[moe](A)[sp].[moe](A)[sp].[moe](T)[sp].d(T)[sp].d(T)[sp].d(A)[sp].d(T)[sp].d(G)[sp].d(C)[sp].d(C)[sp].d(T)[sp].d(A)[sp].[moe](C)[sp].[moe](A)[sp].[moe](G)[sp].[moe](C)[sp].[moe](C)}$$$$V2.0 | 56% and 39% | 
RNA1{[moe](A)[sp].[moe](A)[sp].d(G)[sp].d(A)[sp].d(T)[sp].d(G)[sp].d(A)[sp].d(G)[sp].d(G)[sp].d(C)[sp].d(A)[sp].[moe](T)[sp].[moe](A)[sp].[moe](G)[sp].[moe](C)[sp].[moe](A)[sp].[moe](G)}$$$$V2.0 | 72% and 68% | 
RNA1{[moe](A)[sp].[moe](A)[sp].d(T)[sp].d(T)[sp].d(T)[sp].d(A)[sp].d(T)[sp].d(G)[sp].d(C)[sp].d(C)[sp].d(T)[sp].[moe](A)[sp].[moe](C)[sp].[moe](A)[sp].[moe](G)[sp].[moe](C)[sp].[moe](C)}$$$$V2.0 | 52% and 48% | 
RNA1{[moe](A)[sp].[moe](C)[sp].[moe](C)[sp].[moe](A)[sp].[moe](A)[sp].[moe](T)[sp].d(T)[sp].d(T)[sp].d(A)[sp].d(T)[sp].d(G)[sp].d(C)[sp].d(C)[sp].d(T)[sp].d(A)[sp].[moe](C)[sp].[moe](A)}$$$$V2.0 | 5% and 18% | 
RNA1{[moe](A)[sp].[moe](C)[sp].[moe](C)[sp].[moe](A)[sp].[moe](A)[sp].d(T)[sp].d(T)[sp].d(T)[sp].d(A)[sp].d(T)[sp].d(G)[sp].d(C)[sp].d(C)[sp].d(T)[sp].[moe](A)[sp].[moe](C)[sp].[moe](A)}$$$$V2.0 | 33% and 18% | 
RNA1{[moe](A)[sp].[moe](C)[sp].[moe](C)[sp].[moe](A)[sp].[moe](C)[sp].d(T)[sp].d(G)[sp].d(A)[sp].d(A)[sp].d(C)[sp].d(A)[sp].d(A)[sp].d(A)[sp].d(T)[sp].[moe](G)[sp].[moe](G)}$$$$V2.0 | 60% and 52% | 
RNA1{[moe](A)[sp].[moe](C)[sp].[moe](C)[sp].[moe](A)[sp].d(C)[sp].d(T)[sp].d(G)[sp].d(A)[sp].d(A)[sp].d(C)[sp].d(A)[sp].d(A)[sp].d(A)[sp].[moe](T)[sp].[moe](G)[sp].[moe](G)[sp].[moe](C)}$$$$V2.0 | 60% and 61% | 
RNA1{[moe](A)[sp].[moe](C)[sp].[moe](G)[sp].[moe](T)[sp].[moe](G)[sp].[moe](C)[sp].d(A)[sp].d(G)[sp].d(A)[sp].d(G)[sp].d(G)[sp].d(T)[sp].d(G)[sp].d(A)[sp].d(A)[sp].[moe](G)[sp].[moe](C)}$$$$V2.0 | 78% and 58% | 
RNA1{[moe](A)[sp].[moe](C)[sp].[moe](G)[sp].d(T)[sp].d(G)[sp].d(C)[sp].d(A)[sp].d(G)[sp].d(A)[sp].d(G)[sp].d(G)[sp].d(T)[sp].[moe](G)[sp].[moe](A)[sp].[moe](A)[sp].[moe](G)[sp].[moe](C)}$$$$V2.0 | 79% and 72% | 
RNA1{[moe](A)[sp].[moe](C)[sp].[moe](T)[sp].[moe](A)[sp].d(G)[sp].d(T)[sp].d(A)[sp].d(A)[sp].d(A)[sp].d(C)[sp].d(T)[sp].d(G)[sp].d(A)[sp].[moe](G)[sp].[moe](C)[sp].[moe](C)}$$$$V2.0 | 62% and 63% | 
RNA1{[moe](A)[sp].[moe](C)[sp].[moe](T)[sp].[moe](G)[sp].d(G)[sp].d(A)[sp].d(G)[sp].d(C)[sp].d(C)[sp].d(A)[sp].d(C)[sp].d(C)[sp].d(A)[sp].[moe](G)[sp].[moe](C)[sp].[moe](A)}$$$$V2.0 | 45% and 20% | 
RNA1{[moe](A)[sp].[moe](C)[sp].[moe](T)[sp].d(A)[sp].d(G)[sp].d(T)[sp].d(A)[sp].d(A)[sp].d(A)[sp].d(C)[sp].d(T)[sp].d(G)[sp].[moe](A)[sp].[moe](G)[sp].[moe](C)[sp].[moe](C)}$$$$V2.0 | 64% and 69% | 
RNA1{[moe](A)[sp].[moe](C)[sp].[moe](T)[sp].d(G)[sp].d(G)[sp].d(A)[sp].d(G)[sp].d(C)[sp].d(C)[sp].d(A)[sp].d(C)[sp].d(C)[sp].[moe](A)[sp].[moe](G)[sp].[moe](C)[sp].[moe](A)[sp].[moe](G)}$$$$V2.0 | 67% and 65% | 
